According to publication PMC7828231, “Delphinidin Increases the Sensitivity of Ovarian Cancer Cell Lines to 3-bromopyruvate” (International Journal of Molecular Sciences, 2021):
Read-outs that look alike come from different tables or passages of the source.

How the values were obtained:
Assay in all cases: Cytotoxicity, Neutral Red survival assay
Format in all cases: cell-based, human
[1] = tested on: PEO1 cells; conditions: Homo sapiens
Procedure: (§1) SKOV3 and PEO1 cells were seeded in a clear 96-well plate at a density of 1 × 10^4 cells/well in 100-µL culture medium. MRC-5 cells were seeded at a density of 7.5 × 10^3/well and allowed to attach for 24 h at 37 °C. After incubation, the cells were treated with delphinidin chloride in a concentration range of 10–100 µM and 3-BP at concentrations between 5–25 µM for PEO1 and 10–50 µM for MRC-5 and SKOV3. Nontreated cells were used as a control. Stock solutions of tested substances were prepared in DMSO and their working solutions in culture media. The DMSO concentration was adjusted to 0.2% in all samples, which had no significant effect on the treated cells. After 24-h exposure time, the medium was removed and replaced with 100 µL of […] neutral red solution, and the cells were incubated at 37 °C for 1 h. Then, the cells were washed with PBS; fixed with 100 µL/well of 50% ethanol, 49% H2O and 1% glacial acetic acid and shaken (700 rpm) at room temperature for 20 min. Absorbance was measured at 540 nm against 620 nm.

[2] = tested on: SKOV3 cells; conditions: Homo sapiens
Procedure: as §1

[3] = tested on: MRC-5 fibroblasts; conditions: Homo sapiens, MRC5, read-out: IC50 of cell survival (extrapolated)
Procedure: as §1

[4] = PEO1, 24 h, PEO1, 24-h exposure, Neutral Red, ND = no reduction of survival in the concentration range studied, read-out: IC50 of cell survival
[5] = SK-OV-3, SKOV3, extrapolated from data obtained in the concentration range of 1–100 µM, read-out: IC50 of cell survival (extrapolated)
[6] = PEO1, PEO1, extrapolated from data obtained in the concentration range of 1–100 µM, read-out: IC50 of cell survival (extrapolated)

Oc1cc(O)c2cc(O)c(-c3ccc(O)c(O)c3)[o+]c2c1 [Cyanidin chloride]
IC50 [1, 4]: 107 µM

O=c1c(-c2ccc(O)cc2)coc2cc(O)ccc12 [Daidzein]
IC50 [2, 5]: > 100 µM | IC50 [1, 6]: > 100 µM

O=c1c(-c2ccc(O)cc2)coc2cc(O)cc(O)c12 [Genistein]
IC50 [2, 5]: > 100 µM | IC50 [1, 6]: > 100 µM

COc1c(O)cc2oc(-c3ccc(O)cc3)cc(=O)c2c1O [Hispidulin]
IC50 ([2]; SK-OV-3, read-out: IC50 of cell survival (extrapolated)): > 100 µM | IC50 ([1]; PEO1, 24 h, read-out: IC50 of cell survival): 181 µM

COc1cc(-c2[o+]c3cc(O)cc(O)c3cc2O)cc(OC)c1O [Malvidin chloride]
IC50 ([2]; SK-OV-3, 24 h, read-out: IC50 of cell survival): 90 µM | IC50 [3]: > 100 µM | IC50 ([1]; PEO1, read-out: IC50 of cell survival (extrapolated)): > 100 µM

O=c1c(O)c(-c2cc(O)c(O)c(O)c2)oc2cc(O)cc(O)c12 [Myricetin]
IC50 [1, 4]: 196 µM
